In data set [1] the test system is Sendai virus (SeV) vector SeV18+SEAP/ΔF-GFP. The experiment in a line: HA activity (virion formation) in culture media of SeV-infected LLC-MK2 cells. The note with it: for SeV transcription and replication with NO-associated agents: agent added two days after infection; for SeV transcription and replication (HA activity): agents added two days after infection, SeV18+SEAP/ΔF-GFP or SeV18+/ΔF-GFP, MOI=3.
Experimental: (§1) LLC-MK2 (monkey kidney-derived cells) were seeded into 6-well plates at a concentration of 5×10^5 cells/well, and then cultured in MEM (Gibco-BRL, Rockville, Md.) media containing 10% fetal bovine serum (FBS: BioWhittaker, Walkersville, Md.) at 37° C. for 24 hours in a 5% CO2 incubator. Cells were washed with PBS and infected with F-deleted SeV encoding secretion-type alkaline phosphatase (SEAP)) and green fluorescence protein (GFP) genes (SeV18+SEAP/ΔF-GFP: FIG. 1) at MOI=3. […] After infection, cell culture was continued in MEM media without serum. […] Media from each culture was collected and subsequently replaced with fresh media containing the same content every two days. Heme agglutination activity (HA activity) was measured as an indicator of virion formation; lactose dehydrogenase (LDH) quantification was measured as an indicator of cell damage; and SEAP activity was measured as an indicator of the expression level of genes carried on the vector.
(§2) HA activity was measured using the method described by Kato et al., (Kato, A. et al. , Genes Cells 1, 569-579 (1996)). That is, virus-containing media was subjected to two-fold serial dilution in a 96 round bottom well plate, such that each well contained 50 ul samples. A 50 ul solution of preserved chicken blood (COSMO BIO Co., Ltd., Tokyo, Japan), diluted to 1% with PBS, was added to each well and mixed. The mixture was incubated at 4° C. for one hour. Agglutination of red blood cells was observed, and HA activity was calculated by selecting the highest virus dilution in which agglutination was still observed. Additionally, 1 HA U was considered to be equal to 1×10^6 viruses, and values were shown as a number of viruses. […] LDH quantification was conducted using a Cytotoxicity Detection Kit (Roche, Basel, Switzerland) according to the methodin the kit. […] SEAP activities were measured using a Reporter Assay Kit-SEAP (TOYOBO, Osaka, Japan) according to kit method.
(§3) That is, LLC-MK2 was plated in a 6-well plate at a concentration of 5×10^5 cells/well, and incubated in MEM media containing 10% fetal bovine serum at 37° C. for 24 hours in a 5% CO2 incubator. […] After infection, culture was continued in MEM media without serum. […] Cultured media was recovered every two days, and at this time fresh media, either with or without 5 mM aspirin, was added. The cultures were treated with aspirin for either 0, 2, 4, 6, or 8 days, and then examined. The recovered culture media was analyzed for HA activity, LDH quantification, and SEAP activity. GFP expression and cell damage were also periodically examined using fluorescence microscopy.
(§4) The experiment was conducted as described in Example 1: LLC-MK2 was plated onto a 6-well plate at a concentration of 5×10^5 cells/well, and incubated in MEM media containing 10% fetal bovine serum at 37° C. for 24 hours in a 5% CO2 incubator. […] After infection, cells were cultured in MEM media without serum for two days, then cultured in MEM media (without serum) containing agents at the recorded concentrations. Cultured media was collected every two days and replaced with a same volume of fresh media. HA activity analysis and LDH quantitative analysis were performed on recovered culture media. GFP expression and cell damage were also periodically examined using fluorescence microscopy.

Data set [2] relates to LLC-MK2 cells infected with SeV18+SEAP/ΔF-GFP. The experiment in a line: LDH release (cell damage) from SeV-infected LLC-MK2 cells. The note with it: for cell damage (LDH release): agents added two days after infection, at the concentration tested. (In general: LDH leaks from cells whose membrane has failed.)
Experimental: as §1, §2, §3, §4
Data set [3] has the same test system. The experiment in a line: GFP expression and cell damage by fluorescence microscopy. Particulars: 5 mM aspirin.
Experimental: LLC-MK2 (monkey kidney-derived cells) were seeded into 6-well plates at a concentration of 5×10^5 cells/well, and then cultured in MEM (Gibco-BRL, Rockville, Md.) media containing 10% fetal bovine serum (FBS: BioWhittaker, Walkersville, Md.) at 37° C. for 24 hours in a 5% CO2 incubator. Cells were washed with PBS and infected with F-deleted SeV encoding secretion-type alkaline phosphatase (SEAP)) and green fluorescence protein (GFP) genes (SeV18+SEAP/ΔF-GFP: FIG. 1) at MOI=3. […] After infection, cell culture was continued in MEM media without serum. Two days after infection, the media was replaced with MEM media (without serum) containing 0.625, 1.25, 2.5, and 5 mM of aspirin, or no aspirin. […] Heme agglutination activity (HA activity) was measured as an indicator of virion formation; lactose dehydrogenase (LDH) quantification was measured as an indicator of cell damage; and SEAP activity was measured as an indicator of the expression level of genes carried on the vector.
GFP expression level and cell damage were also periodically observed using fluorescence microscopy.
That is, LLC-MK2 was plated in a 6-well plate at a concentration of 5×10^5 cells/well, and incubated in MEM media containing 10% fetal bovine serum at 37° C. for 24 hours in a 5% CO2 incubator. […] The recovered culture media was analyzed for HA activity, LDH quantification, and SEAP activity. […]
Data set [4] in a line: Aspirin toxicity (LD50, estimated toxicity limit). Particulars: ⅙ of LD50. It is filed as in vivo.
Data set [5] deals with SEAP gene carried on SeV18+SEAP/ΔF-GFP.
Experimental: LLC-MK2 (monkey kidney-derived cells) were seeded into 6-well plates at a concentration of 5×10^5 cells/well, and then cultured in MEM (Gibco-BRL, Rockville, Md.) media containing 10% fetal bovine serum (FBS: BioWhittaker, Walkersville, Md.) at 37° C. for 24 hours in a 5% CO2 incubator. Cells were washed with PBS and infected with F-deleted SeV encoding secretion-type alkaline phosphatase (SEAP)) and green fluorescence protein (GFP) genes (SeV18+SEAP/ΔF-GFP: FIG. 1) at MOI=3. […] After infection, cell culture was continued in MEM media without serum. Two days after infection, the media was replaced with MEM media (without serum) containing 0.625, 1.25, 2.5, and 5 mM of aspirin, or no aspirin. Media from each culture was collected and subsequently replaced with fresh media containing the same content every two days.
SEAP activities were measured using a Reporter Assay Kit-SEAP (TOYOBO, Osaka, Japan) according to kit method.
Data set [6] concerns Vesicular Stomatitis virus (VSV). The note with it: Chen et al., Virology 276 (2000); cited from earlier work.
The subject of a further data set is Cytomegarovirus. The note with it: Albrecht et al. (1987); cited from earlier work.
[7] abbreviates: 0.625-5 mM aspirin added two days after infection.
Where [8] appears, read: 5 mM aspirin, regardless of length of treatment.

Read-outs that look alike come from different tables or passages of the source.

The values below come from patent US20040258668A1 (priority 2001, published 2004).

Regarding `O=C(NCCO[N+](=O)[O-])c1cccnc1` [nicorandil], the “SeV transcription and replication with NO-associated agents” value in data set [1] is “did not significantly suppress transcription and replication”.

As for `CC(C(=O)O)c1ccc(-c2ccccc2)c(F)c1` (centres unmarked) [Flurbiprofen], the “SeV transcription and replication (HA activity)” value in data set [1] is “suppressed SeV transcription and replication”. For the same molecule, the “cell damage (LDH release)” value in data set [2] is “only moderately reduced cell damage”.

With `COc1ccc2c(c1)c(CC(=O)O)c(C)n2C(=O)c1ccc(Cl)cc1` [indomethacin, Indomethacin], in data set [1], the “SeV transcription and replication (HA activity)” value was “suppressed SeV transcription and replication”. In addition, the “cell damage (LDH release)” value in data set [2] was “only moderately reduced cell damage”.

On to `CC(=O)Oc1ccccc1C(=O)O` [aspirin, acetylsalicylic acid], for which the “nature of suppression of SeV transcription and replication” value in data set [3] (after withdrawal) is “transient”. Also, the “GFP expression and cell damage during aspirin treatment” value in data set [3] (treatment 0-8 days) was “GFP expression is low and cell damage is not observed”. Also, the estimated toxicity limit in data set [4] was 300 mg/kg. Further, the values for the SEAP activity entry in data set [5] (5 mM aspirin) and in data set [5] (setting [7]) were “most significant decrease in activity” and “concentration-dependent decrease in SEAP activity”, respectively. Also, the “HA activity (virion formation)” value in data set [1] (5 mM aspirin added two days after infection, MOI=3, LLC-MK2) is “suppressed the increase in HA activity”. In data set [1] (setting [8]), the “time after end of aspirin treatment until HA activity and virion formation increase” value is given as “two”. Moreover, the “HA activity during aspirin treatment” value in data set [1] (5 mM aspirin, treatment 0, 2, 4, 6 or 8 days) is on record as “increase in HA activity was low during aspirin treatment”. In addition, in data set [1], the “SeV transcription and replication (HA activity)” value is “suppressed SeV transcription and replication”. Moreover, in data set [6], the “multiplication of VSV” value is listed as “suppressed the multiplication of the Vesicular Stomatitis virus (VSV)”. Further, the “cell damage (LDH)” value in data set [2] (5 mM aspirin) is recorded as “Almost no cell damage was observed”. For the same molecule, the “time after end of aspirin treatment until LDH increases” value in data set [2] (setting [8]) is “four”. For the same molecule, in data set [2] (setting [7]), the LDH release result is “concentration-dependent decrease in LDH release”. The “cell damage (LDH release)” value in data set [2] is reported as “reducing cytotoxicity”.

Regarding `CC(C(=O)O)c1cccc(C(=O)c2ccccc2)c1` (centres unmarked) [Ketoprofen], in data set [1], the “SeV transcription and replication (HA activity)” value was “suppressed SeV transcription and replication”. Also, in data set [2], the “cell damage (LDH release)” value is “reduced cell damage”.

Turning to `COc1ccc(Cc2nccc3cc(OC)c(OC)cc23)cc1OC` [Papaverin], in the data set on Cytomegarovirus, the Cytomegarovirus multiplication entry was “suppress Cytomegarovirus multiplication”. Further, the “SeV transcription and replication (HA activity)” value in data set [1] is “suppressed SeV transcription and replication”. Also, the “cell damage (LDH release)” value in data set [2] is “enhanced cell damage”.

With `Cc1cccc(Nc2ccccc2C(=O)O)c1C` [Mefenamic acid], the “SeV transcription and replication (HA activity)” value in data set [1] is “suppressed SeV transcription and replication”. In addition, in data set [2], the “cell damage (LDH release)” value is “enhanced cell damage”.

Regarding `O=[N+]([O-])O[C@H]1CO[C@H]2[C@@H]1OC[C@H]2O[N+](=O)[O-]` [isosorbide dinitrate], the “SeV transcription and replication with NO-associated agents” value in data set [1] is “did not significantly suppress transcription and replication”.

On to `O=C(O)Cc1ccccc1Nc1c(Cl)cccc1Cl` [Diclofenac sodium], for which, in data set [1], the “SeV transcription and replication (HA activity)” value is “suppressed SeV transcription and replication”. In addition, the “cell damage (LDH release)” value in data set [2] is recorded as “enhanced cell damage”.
